Test results reported in patent US11180483B2, “Substituted reverse pyrimidine Bmi-1 inhibitors” (PTC Therapeutics, Inc., priority 2012, dated 2021).

Assays:
Bmi-1 = test: Sandwich ELISA Assay (Bmi-1 ELISA) in HT-1080 cells; type: cell-based
Method in brief: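 Bmi-1 in lysates was measured by a three-antibody ELISA with TMB, OD450 minus OD570 reference, interpolated on a GST-tagged recombinant Bmi-1 standard curve, 0-8000 pg/mL. Lysates came from HT-1080 cells treated 40-48 h with compound, final DMSO 0.5%.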

| SMILES | melting point [°C] | EC50 (Bmi-1) [nM] |
| --- | --- | --- |
| Nc1cc(Nc2ccc(C(F)(F)F)cc2)nc(-c2c(C(F)(F)F)nc3ccccn23)n1 [Cpd 66, 2-[2-(trifluoromethyl)imidazo[1,2-a]pyridin-3-yl]-N-[4-(trifluoromethyl)phenyl]pyrimidine-4,6-diamine] | 203 to 205 | 10 to 100 |
| Nc1cc(Nc2ccc(OC(F)(F)F)cc2)nc(-c2c(C(F)(F)F)nc3ccccn23)n1 [Cpd 67, N-[4-(trifluoromethoxy)phenyl]-2-[2-(trifluoromethyl]imidazo[1,2-a]pyridin-3-yl]pyrimidine-4,6-diamine] | 199 to 202 | 100 to 3000 |
| Cc1nc2ccc(F)cn2c1-c1nc(N)cc(Nc2ccc(OC(F)F)cc2)n1 [Cpd 69, N-[4-(difluoromethoxy)phenyl]-2-(6-fluoro-2-methylimidazo[1,2-a]pyridin-3-yl)pyrimidine-4,6-diamine] | 136 to 138 | 10 to 100 |
| Cc1nn(C)c(C)c1-c1nc(N)cc(Nc2ccc(C(F)(F)F)cc2)n1 [Cpd 70, N-[4-(trifluoromethyl)phenyl]-2-(1,3,5-trimethyl-1H-pyrazol-4-yl)pyrimidine-4,6-diamine] | 270 to 271 | 100 to 3000 |
| Cc1nc2ccc(F)cc2n1-c1nc(N)cc(Nc2ccc(OC(F)F)cc2)n1 [Cpd 72, N-[4-(difluoromethoxy)phenyl]-2-(6-fluoro-2-methyl-1H-benzimidazol-1-yl)pyrimidine-4,6-diamine] | 168 to 170 | 10 to 100 |
| Nc1cc(Nc2ccc(OC(F)F)c(F)c2)nc(-c2c(C3CC3)nc3ccc(F)cn23)n1 [Cpd 75, 2-(2-cyclopropyl-6-fluoroimidazo[1,2-a]pyridin-3-yl)-N-[4-(difluoromethoxy)-3-fluorophenyl]pyrimidine-4,6-diamine] | 198 to 200 | 100 to 3000 |
| Cc1nc2ccc(F)cc2n1-c1nc(N)cc(Nc2ccc(OC(F)F)c(F)c2)n1 [Cpd 76, N-[4-(difluoromethoxy)-3-fluorophenyl]-2-(6-fluoro-2-methyl-1H-benzimidazol-1-yl)pyrimidine-4,6-diamine] | 182 to 183 | 10 to 100 |
| CCc1nc2ccc(F)cc2n1-c1nc(N)cc(Nc2ccc(OC(F)F)c(F)c2)n1 [Cpd 77, N-[4-(difluoromethoxy)-3-fluorophenyl]-2-(2-ethyl-6-fluoro-1H-benzimidazol-1-yl)pyrimidine-4,6-diamine] | 156 to 158 | 10 to 100 |
| Nc1cc(Nc2ccc(OC(F)F)c(F)c2)nc(-n2c(C3CC3)nc3ccc(F)cc32)n1 [Cpd 78, 2-(2-cyclopropyl-6-fluoro-1H-benzimidazol-1-yl)-N-[4-(difluoromethoxy)-3-fluorophenyl]pyrimidine-4,6-diamine] | 186 to 188 | 10 to 100 |
| CCc1nc2ccc(F)cc2n1-c1nc(N)cc(Nc2ccc(C(F)(F)F)cc2)n1 [Cpd 81, 2-(2-ethyl-6-fluoro-1H-benzimidazol-1-yl)-N-[4-(trifluoromethyl)phenyl]pyrimidine-4,6-diamine] | 201 to 203 | 10 to 100 |
| Cc1nc2ncc(F)cn2c1-c1nc(N)cc(Nc2ccc(C(F)(F)F)cc2)n1 [Cpd 100, 2-(6-fluoro-2-methylimidazo[1,2-a]pyrimidin-3-yl)-N-[4-(trifluoromethyl)phenyl]pyrimidine-4,6-diamine] | 256 to 258 | 100 to 3000 |
| Nc1cc(Nc2ccc(OC(F)F)cc2)nc(-n2c(C3CC3)nc3ccc(F)cc32)n1 [Cpd 143, 2-(2-cyclopropyl-6-fluoro-1H-benzimidazol-1-yl)-N-[4-(difluoromethoxy)phenyl]pyrimidine-4,6-diamine] | 175 to 177 | 1 to 10 |
| CCc1nc2ccc(F)cc2n1-c1nc(N)cc(Nc2ccc(OC(F)F)cc2)n1 [Cpd 144, N-[4-(difluoromethoxy)phenyl]-2-(2-ethyl-6-fluoro-1H-benzimidazol-1-yl)pyrimidine-4,6-diamine] | 166 to 168 | 10 to 100 |
| Nc1cc(Nc2ccc(OC(F)F)cc2)nc(-n2c(C(F)F)nc3ccc(F)cc32)n1 [Cpd 145, N-[4-(difluoromethoxy)phenyl]-2-[2-(difluoromethyl)-6-fluoro-1H-benzimidazol-1-yl]pyrimidine-4,6-diamine] | 114 to 115 | 1 to 10 |
| Nc1cc(Nc2ccc(C(F)(F)F)cc2)nc(-n2c(C3CC3)nc3ccccc32)n1 [Cpd 149, 2-(2-cyclopropyl-1H-benzimidazol-1-yl)-N-[4-(trifluoromethyl)phenyl]pyrimidine-4,6-diamine] | 199 to 201 | 10 to 100 |
| COCc1nc2ccccc2n1-c1nc(N)cc(Nc2ccc(C(F)(F)F)cc2)n1 [Cpd 150, 2-[2-(methoxymethyl)-1H-benzimidazol-1-yl]-N-[4-(trifluoromethyl]phenyl]pyrimidine-4,6-diamine] | 212 to 213 | 10 to 100 |
| CC(C)c1nc2ccccc2n1-c1nc(N)cc(Nc2ccc(C(F)(F)F)cc2)n1 [Cpd 151, 2-[2-(propan-2-yl)-1H-benzimidazol-1-yl]-N-[4-(trifluoromethyl]phenyl]pyrimidine-4,6-diamine] | 216 to 218 | 10 to 100 |
| Nc1cc(Nc2ccc(C(F)(F)F)cc2)nc(-n2c(C(F)F)nc3ccccc32)n1 [Cpd 152, 2-[2-(difluoromethyl)-1H-benzimidazol-1-yl]-N-[4-(trifluoromethyl)phenyl]pyrimidine-4,6-diamine] | 187 to 188 | 10 to 100 |
| CCc1nc2ccccc2n1-c1nc(N)cc(Nc2ccc(C(F)(F)F)cc2)n1 [Cpd 153, 2-(2-ethyl-1H-benzimidazol-1-yl)-N-[4-(trifluoromethyl]phenyl]pyrimidine-4,6-diamine] | 183 to 185 | 10 to 100 |
| Cc1cn2c(-c3nc(N)c(F)c(Nc4ccc(C(F)(F)F)cc4)n3)c(C)nc2c(C)n1 [Cpd 174, 5-fluoro-N-[4-(trifluoromethyl)phenyl]-2-(2,6,8-trimethylimidazo[1,2-a]pyrazin-3-yl)pyrimidine-4,6-diamine] | 166 to 168 | 100 to 3000 |
| Cc1cn2c(-c3nc(N)c(F)c(Nc4ccc(OC(F)F)cc4)n3)c(C)nc2c(C)n1 [Cpd 175, N-[4-(difluoromethoxy)phenyl]-5-fluoro-2-(2,6,8-trimethylimidazo[1,2-a]pyrazin-3-yl)pyrimidine-4,6-diamine] | 141 to 143 | 100 to 3000 |

Continued, values first:

| melting point [°C] | EC50 (Bmi-1) [nM] | SMILES |
| --- | --- | --- |
| 140 to 141 | 100 to 3000 | Cc1cn2c(-c3nc(N)c(F)c(Nc4ccc(OC(F)F)c(F)c4)n3)c(C)nc2c(C)n1 [Cpd 176, N-[4-(difluoromethoxy)-3-fluorophenyl]-5-fluoro-2-(2,6,8-trimethylimidazo[1,2-a]pyrazin-3-yl)pyrimidine-4,6-diamine] |
| 103 to 105 | 100 to 3000 | CCc1nn2ccc(F)cc2c1-c1nc(N)c(F)c(Nc2ccc(OC(F)F)cc2)n1 [Cpd 186, N-[4-(difluoromethoxy)phenyl]-2-(2-ethyl-5-fluoropyrazolo[1,5-a]pyridin-3-yl)-5-fluoropyrimidine-4,6-diamine] |
| 164 to 166 | 100 to 3000 | CCc1nn2ccc(F)cc2c1-c1nc(N)c(F)c(Nc2ccc(C(F)(F)F)cc2)n1 [Cpd 187, 2-(2-ethyl-5-fluoropyrazolo[1,5-a]pyridin-3-yl)-5-fluoro-N-[4-(trifluoromethyl)phenyl]pyrimidine-4,6-diamine] |
| 150 to 152 | 100 to 3000 | CCc1nn2ccc(F)cc2c1-c1nc(N)c(F)c(Nc2ccc(OC(F)F)c(F)c2)n1 [Cpd 188, N-[4-(difluoromethoxy)-3-fluorophenyl]-2-(2-ethyl-5-fluoropyrazolo[1,5-a]pyridin-3-yl)-5-fluoropyrimidine-4,6-diamine] |
| 166 to 167 | 1 to 10 | Cc1nc2ccccc2n1-c1nc(N)cc(Nc2ccc3c(c2)OCO3)n1 [Cpd 205, N-(1,3-benzodioxol-5-yl)-2-(2-methyl-1H-benzimidazol-1-yl)pyrimidine-4,6-diamine] |
|  | 100 to 3000 | Nc1nc(-n2c(C3CC3)nc3ccccc32)nc(Nc2ccc(OC(F)(F)F)cc2)c1F [Cpd 278, 2-(2-cyclopropyl-1H-benzimidazol-1-yl)-5-fluoro-N-[4-(trifluoromethoxy)phenyl]pyrimidine-4,6-diamine] |
|  | 10 to 100 | Nc1nc(-n2c(C3CC3)nc3ccccc32)nc(Nc2ccc(Cl)cc2)c1F [Cpd 279, N-(4-chlorophenyl)-2-(2-cyclopropyl-1H-benzimidazol-1-yl)-5-fluoropyrimidine-4,6-diamine] |
|  | 10 to 100 | Nc1nc(-n2c(C3CC3)nc3ccccc32)nc(Nc2ccc(Cl)c(F)c2)c1F [Cpd 280, N-(4-chloro-3-fluorophenyl)-2-(2-cyclopropyl-1H-benzimidazol-1-yl)-5-fluoropyrimidine-4,6-diamine] |
|  | 1 to 10 | Cc1ccc(Nc2nc(-n3c(C)nc4cc(F)ccc43)nc(N)c2F)cc1 [Cpd 281, 5-fluoro-2-(5-fluoro-2-methyl-1H-benzimidazol-1-yl)-N-(4-methylphenyl)pyrimidine-4,6-diamine] |
|  | 1 to 10 | COc1ccc(Nc2nc(-n3c(C)nc4cc(F)ccc43)nc(N)c2F)cc1 [Cpd 282, 5-fluoro-2-(5-fluoro-2-methyl-1H-benzimidazol-1-yl)-N-(4-methoxyphenyl)pyrimidine-4,6-diamine] |
|  | 100 to 3000 | Cc1nc2cc(F)ccc2n1-c1nc(N)c(F)c(Nc2ccc(OC(F)(F)F)cc2)n1 [Cpd 283, 5-fluoro-2-(5-fluoro-2-methyl-1H-benzimidazol-1-yl)-N-[4-(trifluoromethoxy)phenyl]pyrimidine-4,6-diamine] |
|  | 10 to 100 | Cc1nc2ccc(N)cc2n1-c1nc(N)c(F)c(Nc2ccc(C(F)(F)F)cc2)n1 [Cpd 284, 2-(6-amino-2-methyl-1H-benzimidazol-1-yl)-5-fluoro-N-[4-(trifluoromethyl)phenyl]pyrimidine-4,6-diamine] |
